# Numbers after ± are expanded uncertainties.
# Assay: xn = mol fraction of the nth substance listed
# Conditions: 102 kPa, Liquid, Vibrating tube method
smiles,measurement,setting,value
"CC(C)(C)c1ccccc1 [(1,1-dimethylethyl)benzene] + C[Si]1(CCC(F)(F)F)O[Si](C)(CCC(F)(F)F)O[Si](C)(CCC(F)(F)F)O1",mass density,"308.15 K, x2 = 0",854.12 ± 1 kg/m3
same,mass density,"308.15 K, x2 = 0.0476",894.32 ± 1 kg/m3
same,mass density,"308.15 K, x2 = 0.1",933.32 ± 1 kg/m3
same,mass density,"308.15 K, x2 = 0.15",966.19 ± 1 kg/m3
same,mass density,"308.15 K, x2 = 0.2",995.76 ± 1 kg/m3
same,mass density,"308.15 K, x2 = 0.25",1022.23 ± 1 kg/m3
same,mass density,"308.15 K, x2 = 0.2999",1046.09 ± 1 kg/m3
same,mass density,"308.15 K, x2 = 0.3499",1067.85 ± 1 kg/m3
same,mass density,"308.15 K, x2 = 0.3999",1087.64 ± 1 kg/m3
same,mass density,"308.15 K, x2 = 0.45",1105.84 ± 1 kg/m3
same,mass density,"308.15 K, x2 = 0.5",1122.55 ± 1 kg/m3
same,mass density,"308.15 K, x2 = 0.5498",1137.88 ± 1 kg/m3
same,mass density,"308.15 K, x2 = 0.6",1152.22 ± 1 kg/m3
same,mass density,"308.15 K, x2 = 0.6499",1165.5 ± 1 kg/m3
same,mass density,"308.15 K, x2 = 0.7001",1177.76 ± 1 kg/m3
same,mass density,"308.15 K, x2 = 0.75",1189.19 ± 1 kg/m3
same,mass density,"308.15 K, x2 = 0.7995",1199.87 ± 1 kg/m3
same,mass density,"308.15 K, x2 = 0.8499",1209.99 ± 1 kg/m3
same,mass density,"308.15 K, x2 = 0.8954",1218.66 ± 1 kg/m3
same,mass density,"308.15 K, x2 = 0.9485",1228.1 ± 1 kg/m3
same,mass density,"313.15 K, x2 = 0",849.98 ± 1 kg/m3
same,mass density,"313.15 K, x2 = 0.0476",889.93 ± 1 kg/m3
same,mass density,"313.15 K, x2 = 0.1",928.72 ± 1 kg/m3
same,mass density,"313.15 K, x2 = 0.15",961.47 ± 1 kg/m3
same,mass density,"313.15 K, x2 = 0.2",990.72 ± 1 kg/m3
same,mass density,"313.15 K, x2 = 0.25",1017.01 ± 1 kg/m3
same,mass density,"313.15 K, x2 = 0.2999",1040.82 ± 1 kg/m3
same,mass density,"313.15 K, x2 = 0.3499",1062.39 ± 1 kg/m3
same,mass density,"313.15 K, x2 = 0.3999",1082.11 ± 1 kg/m3
same,mass density,"313.15 K, x2 = 0.45",1100.2 ± 1 kg/m3
same,mass density,"313.15 K, x2 = 0.5",1116.79 ± 1 kg/m3
same,mass density,"313.15 K, x2 = 0.5498",1132.05 ± 1 kg/m3
same,mass density,"313.15 K, x2 = 0.6",1146.28 ± 1 kg/m3
same,mass density,"313.15 K, x2 = 0.6499",1159.37 ± 1 kg/m3
same,mass density,"313.15 K, x2 = 0.7001",1171.65 ± 1 kg/m3
same,mass density,"313.15 K, x2 = 0.75",1183.03 ± 1 kg/m3
same,mass density,"313.15 K, x2 = 0.7995",1193.61 ± 1 kg/m3
same,mass density,"313.15 K, x2 = 0.8499",1203.62 ± 1 kg/m3
same,mass density,"313.15 K, x2 = 0.8954",1212.17 ± 1 kg/m3
same,mass density,"313.15 K, x2 = 0.9485",1221.55 ± 1 kg/m3
same,mass density,"318.15 K, x2 = 0",845.87 ± 1 kg/m3
same,mass density,"318.15 K, x2 = 0.0476",885.61 ± 1 kg/m3
same,mass density,"318.15 K, x2 = 0.1",924.21 ± 1 kg/m3
same,mass density,"318.15 K, x2 = 0.15",956.76 ± 1 kg/m3
same,mass density,"318.15 K, x2 = 0.2",985.86 ± 1 kg/m3
same,mass density,"318.15 K, x2 = 0.25",1012 ± 1 kg/m3
same,mass density,"318.15 K, x2 = 0.2999",1035.68 ± 1 kg/m3
same,mass density,"318.15 K, x2 = 0.3499",1057.13 ± 1 kg/m3
same,mass density,"318.15 K, x2 = 0.3999",1076.69 ± 1 kg/m3
same,mass density,"318.15 K, x2 = 0.45",1094.66 ± 1 kg/m3
same,mass density,"318.15 K, x2 = 0.5",1111.16 ± 1 kg/m3
same,mass density,"318.15 K, x2 = 0.5498",1126.36 ± 1 kg/m3
same,mass density,"318.15 K, x2 = 0.6",1140.41 ± 1 kg/m3
same,mass density,"318.15 K, x2 = 0.6499",1153.46 ± 1 kg/m3
same,mass density,"318.15 K, x2 = 0.7001",1165.58 ± 1 kg/m3
same,mass density,"318.15 K, x2 = 0.75",1176.83 ± 1 kg/m3
same,mass density,"318.15 K, x2 = 0.7995",1187.3 ± 1 kg/m3
same,mass density,"318.15 K, x2 = 0.8499",1197.27 ± 1 kg/m3
same,mass density,"318.15 K, x2 = 0.8954",1205.76 ± 1 kg/m3
same,mass density,"318.15 K, x2 = 0.9485",1215.06 ± 1 kg/m3
same,mass density,"323.15 K, x2 = 0",841.72 ± 1 kg/m3
same,mass density,"323.15 K, x2 = 0.0476",881.21 ± 1 kg/m3
same,mass density,"323.15 K, x2 = 0.1",919.56 ± 1 kg/m3
same,mass density,"323.15 K, x2 = 0.15",951.94 ± 1 kg/m3
same,mass density,"323.15 K, x2 = 0.2",980.83 ± 1 kg/m3
same,mass density,"323.15 K, x2 = 0.25",1006.81 ± 1 kg/m3
same,mass density,"323.15 K, x2 = 0.2999",1030.38 ± 1 kg/m3
same,mass density,"323.15 K, x2 = 0.3499",1051.7 ± 1 kg/m3
same,mass density,"323.15 K, x2 = 0.3999",1071.16 ± 1 kg/m3
same,mass density,"323.15 K, x2 = 0.45",1089.02 ± 1 kg/m3
same,mass density,"323.15 K, x2 = 0.5",1105.4 ± 1 kg/m3
same,mass density,"323.15 K, x2 = 0.5498",1120.47 ± 1 kg/m3
same,mass density,"323.15 K, x2 = 0.6",1134.47 ± 1 kg/m3
same,mass density,"323.15 K, x2 = 0.6499",1147.45 ± 1 kg/m3
same,mass density,"323.15 K, x2 = 0.7001",1159.5 ± 1 kg/m3
same,mass density,"323.15 K, x2 = 0.75",1170.74 ± 1 kg/m3
same,mass density,"323.15 K, x2 = 0.7995",1181.13 ± 1 kg/m3
same,mass density,"323.15 K, x2 = 0.8499",1190.93 ± 1 kg/m3
same,mass density,"323.15 K, x2 = 0.8954",1199.34 ± 1 kg/m3
same,mass density,"323.15 K, x2 = 0.9485",1208.56 ± 1 kg/m3

# Source: the NIST ThermoML archive (doi:10.1016/j.jct.2015.12.025)
